In the NIST ThermoML archive (doi:10.1016/j.fluid.2013.08.026):
Numbers after ± are expanded uncertainties.

Settings: for surface tension liquid-gas: Maximal bubble pressure; for mass density: 101.33 kPa, Liquid, Buoyancy - hydrostatic balance

CCCCCCCn1cc[n+](C)c1.[Br-] [1-heptyl-3-methylimidazolium bromide]
Settings	mass density [kg/m3]	surface tension liquid-gas [mN/m]
293.15 K	1249 ± 1.3	37.8 ± 0.5
298.15 K	1245.9 ± 1.3	37.5 ± 0.5
303.15 K	1242.3 ± 1.2	37.2 ± 0.5
308.15 K	1239.1 ± 1.2	36.8 ± 0.5
313.15 K	1236 ± 1.2	36.5 ± 0.5
318.15 K	1232.8 ± 1.2	36.1 ± 0.5
323.15 K	1229.7 ± 1.2	35.9 ± 0.5
328.15 K	1226.4 ± 1.2	35.6 ± 0.5
333.15 K	1222.8 ± 1.2	35.3 ± 0.5
338.15 K	1219.9 ± 1.2	35 ± 0.5
343.15 K	1216.6 ± 1.2	34.6 ± 0.5
